What was measured:
Type in all cases: biochemical
[1] = target: T1, group V secreted PLA2 (sPLA2) (Homo sapiens, UniProt P39877); assay: Traditional radioactive assay
T1 sequence (P39877 21-138): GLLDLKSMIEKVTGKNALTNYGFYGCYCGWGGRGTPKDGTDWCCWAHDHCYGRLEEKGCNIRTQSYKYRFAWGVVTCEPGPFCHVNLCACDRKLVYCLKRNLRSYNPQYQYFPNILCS

[2] = target: T1, group V secreted PLA2 (sPLA2); assay: Lipidomics LC-MS mixed micelle PLA2 assay, sPLA2
[3] = target: group VIA calcium-independent (iPLA2) (Homo sapiens, UniProt O60733); assay: Lipidomics LC-MS mixed micelle PLA2 assay, iPLA2; settings: for IC50: IC50, single phospholipid PAPC
group VIA calcium-independent (iPLA2), sequence (O60733 whole entry): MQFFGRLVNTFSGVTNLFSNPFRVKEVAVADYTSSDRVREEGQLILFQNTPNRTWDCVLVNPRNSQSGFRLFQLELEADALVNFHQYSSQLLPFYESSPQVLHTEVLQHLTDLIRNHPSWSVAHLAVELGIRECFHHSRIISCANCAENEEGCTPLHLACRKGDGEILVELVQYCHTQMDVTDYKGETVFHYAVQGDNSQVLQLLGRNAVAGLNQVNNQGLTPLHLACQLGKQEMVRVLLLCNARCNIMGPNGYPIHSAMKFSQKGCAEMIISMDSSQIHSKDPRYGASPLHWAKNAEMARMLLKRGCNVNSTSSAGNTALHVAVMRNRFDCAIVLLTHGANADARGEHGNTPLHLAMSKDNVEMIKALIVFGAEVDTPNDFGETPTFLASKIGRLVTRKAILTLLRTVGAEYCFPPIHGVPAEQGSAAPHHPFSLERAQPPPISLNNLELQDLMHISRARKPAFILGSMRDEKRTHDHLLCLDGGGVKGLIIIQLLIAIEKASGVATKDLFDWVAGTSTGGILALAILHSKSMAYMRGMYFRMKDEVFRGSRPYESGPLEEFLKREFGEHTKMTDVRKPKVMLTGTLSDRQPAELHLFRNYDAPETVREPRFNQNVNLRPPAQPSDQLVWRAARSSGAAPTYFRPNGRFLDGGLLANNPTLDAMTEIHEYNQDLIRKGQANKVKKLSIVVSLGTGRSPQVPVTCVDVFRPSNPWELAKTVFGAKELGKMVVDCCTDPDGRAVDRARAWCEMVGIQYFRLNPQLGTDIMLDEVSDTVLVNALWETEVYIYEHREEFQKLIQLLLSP

SMILES	IC50 [1]	IC50 ([2]; IC50, single phospholipid PAPC, 16:0 LPC detected, positive ion mode)	IC50 ([2]; IC50, single phospholipid PAPG, 16:0 LPG detected, positive ion mode)	IC50 ([2]; IC50, single phospholipid PAPG, free AA detected, negative ion mode)	XI(50) ([2]; single phospholipid PAPC, free AA detected, negative ion mode)	IC50 ([3]; 16:0 LPC detected, positive ion mode)	IC50 ([3]; free AA detected, negative ion mode)	greater inhibitor potency with PAPC as substrate versus PLPC ([3]; PAPC versus PLPC substrate)
CCc1c(C(=O)C(N)=O)c2c(OCC(=O)O)cccc2n1Cc1ccccc1 [Ly315920]	56 nM	104 nM	18000 nM	22000 nM	0.0002	–	–	–
CCCCCCCCSCC(=O)C(F)(F)F [OTFP]	–	–	–	–	–	58 nM	34 nM	approximately twofold
